Results reported in patent publication EP4722231A1, “BIOSYNTHESIS METHOD FOR BROAD-SPECTRUM ANTIVIRAL POLYPEPTIDE” (Shanxi Jinbo Bio-Pharmaceutical Co., Ltd., priority 2023, dated 2025).

Legend:
[1] = system: BA.2.75 pseudovirus; conditions: read-out: Inhibitory activity, IC50 (nM) BA.2.75, Caco2 target cells
[2] = system: BA.2 pseudovirus; conditions: read-out: Inhibitory activity, IC50 (nM) BA.2, Caco2 target cells
[3] = system: EG.5 pseudovirus; conditions: read-out: Inhibitory activity, IC50 (nM) EG.5, Caco2 target cells
[4] = system: XBB.1.5 pseudovirus; conditions: read-out: Inhibitory activity, IC50 (nM) XBB.1.5, Caco2 target cells
[5] = system: BA.2.86 pseudovirus; conditions: read-out: Inhibitory activity, IC50 (nM) BA.2.86, Caco2 target cells

CC[C@H](C)[C@H](NC(=O)[C@H](C)NC(=O)[C@H](CCC(=O)O)NC(=O)[C@H](CCC(=O)O)NC(=O)[C@H](CC(C)C)NC(=O)[C@H](CCCCN)NC(=O)[C@H](CCCCN)NC(=O)[C@H](CCSC)NC(=O)[C@H](CCC(=O)O)NC(=O)[C@H](Cc1ccc(O)cc1)NC(=O)[C@H](CCC(=O)O)NC(=O)[C@H](CC(C)C)NC(=O)[C@H](CC(=O)O)NC(=O)[C@H](CC(C)C)NC(=O)[C@H](Cc1ccccc1)NC(=O)[C@@H](NC(=O)[C@@H](NC(=O)[C@H](CC(N)=O)NC(=O)[C@@H](NC(=O)[C@H](CCC(N)=O)NC(=O)[C@H](CC(=O)O)NC(=O)[C@H](CC(C)C)NC(=O)[C@H](CO)NC(C)=O)[C@@H](C)CC)C(C)C)[C@@H](C)O)C(=O)N[C@@H](CCCCN)C(=O)N[C@@H](CCCCN)C(=O)N[C@@H](CC(C)C)C(=O)N[C@@H](CCC(=O)O)C(=O)N[C@@H](CCC(=O)O)C(=O)N[C@@H](CO)C(=O)N[C@@H](Cc1ccc(O)cc1)C(=O)N[C@H](C(=O)N[C@@H](CC(=O)O)C(=O)N[C@@H](CC(C)C)C(=O)N[C@@H](CCCCN)C(=O)N[C@@H](CCC(=O)O)C(=O)N[C@@H](CC(C)C)C(N)=O)[C@@H](C)CC [EK1]
IC50 [1]: 438 nM
IC50 [2]: 228 nM
IC50 [3]: 401 nM
IC50 [4]: 291 nM
IC50 [5]: 392 nM
